These results are taken from US9642874B2, “Compositions of selenoorganic compounds and methods of use thereof” (Alltech, Inc., priority 2014, dated 2017).

Common to all, as to type: cell-based
For test [1], the system named is Foxo1. The experiment in a line: Western blot of pFoxo1T24 in primary mouse hepatocytes. Conditions: 100 nM insulin 6 hours, or Compounds CDE both doses 24 hours + 6 hours. The procedure:
(§1) The overnight-acclimated hepatocytes were washed twice with PBS (to remove any residual FBS and other additives in the TRL hepatocyte maintenance medium, pretreated with control (water) or selenium Compounds CDE (150 or 300 ppb of each selenium compound) in DMEM/F12 media supplemented with 10% fetal bovine serum (FBS) for 24 hr. These cells were then washed twice with PBS and incubated with the same dose of selenium Compounds CDE (150 or 300 ppb) in the presence or absence of insulin (10 or 100 nM, Sigma), 0.1 mM 8-CPT (Sigma) or 0.5 μM Dex (Sigma) in serum-free and glucose-free DMEM media (Invitrogen) supplemented with 20 mM lactose (Sigma) and 2 mM pyruvate (Sigma) and 15 mM HEPES (Sigma) for another 6 hours. […]
(§2) After the above described treatments, primary mouse hepatocytes were rinsed with ice-cold PBS and lysed in the ice-cold RIPA buffer containing complete proteinase and phosphatase inhibitors (Thermo-Fisher Scientific, Waltham, Mass.) on ice for 30 min Cell lysates were collected using a cell scraper and transfer pipette and then centrifuged at 12000×g for 30 min at 4° C. to remove the DNA pellet and obtain the protein extract. Protein levels in the supernatant of these cell lysates were determined using the Pierce Micro-BCA protein assay kit (Thermo Scientific-Piece Biotechnology, Rockford, Ill.) according to the manufacturer's protocol. […]
A general note: A western blot detects proteins with antibodies after separation by electrophoresis.

Test [2] has as its system Foxo4. The experiment in a line: Western blot of pFoxo4T28 in primary mouse hepatocytes. Conditions: 100 nM insulin, 6 hours. The procedure:
as §1, §2

Test [3] deals with primary mouse hepatocytes. The experiment in a line: Glucose production in primary mouse hepatocytes (glucose in culture media). Particulars: for 8-CPT/Dex-stimulated glucose production: serum-free; for 8-CPT/Dex-stimulated glucose production / decrease of glucose production: 6 hours. The procedure: The overnight-acclimated hepatocytes were washed twice with PBS (to remove any residual FBS and other additives in the TRL hepatocyte maintenance medium, pretreated with control (water) or selenium Compounds CDE (150 or 300 ppb of each selenium compound) in DMEM/F12 media supplemented with 10% fetal bovine serum (FBS) for 24 hr. These cells were then washed twice with PBS and incubated with the same dose of selenium Compounds CDE (150 or 300 ppb) in the presence or absence of insulin (10 or 100 nM, Sigma), 0.1 mM 8-CPT (Sigma) or 0.5 μM Dex (Sigma) in serum-free and glucose-free DMEM media (Invitrogen) supplemented with 20 mM lactose (Sigma) and 2 mM pyruvate (Sigma) and 15 mM HEPES (Sigma) for another 6 hours. After treatments, cell media were collected and subjected to glucose assay and toxicological studies of lactate dehydrogenase (LDH) and cells were collected for RNA and protein analysis.
For the studies of Compounds CDE on primary mouse hepatocytes under totally serum-free culture conditions, hepatocytes were acclimated in hepatocyte maintenance medium (TRL) for 8 hours, washed twice with PBS (to remove any residual FBS and other additives in the culture dish) and then starved in serum-free DMEM/F12 media overnight. Some of these serum-starved hepatocytes were treated with control (water), selenium compounds (150 or 300 ppb of each compound) in the presence or absence of insulin (10 or 100 nM), 0.1 mM 8-CPT (Sigma) or 0.5 μM Dex (Sigma) in serum-free and glucose/phenol red-free DMEM media supplemented with 20 mM lactose and 2 mM pyruvate and 15 mM HEPES for 6 hours. After 6 hours treatment, culture media were collected for glucose analysis and toxicological studies monitoring LDH activity and cultured cells were isolated for protein analysis. In addition, some serum-starved hepatocytes were treated with Compounds CDE (300 ppb of each compound) in plain DMEM/F12 media for 0, 5, 30, 60, 120 and 180 min and cells were collected for the time-course protein analysis of various signaling molecules.
Cell culture media from the above described treatments were collected and centrifuged at 300×g for 5 minutes to remove any potential dislodged hepatocytes and subjected to glucose analysis using a colormetric glucose assay kit (Abcam) according to the manufacturer protocol. The absorbance at OD570 nm in the samples and various concentrations of glucose standards were determined by the Bio-Tek microplate reader, and glucose concentration in the medium of each sample was obtained from the glucose standard curve, and then normalized by its protein level in attached cells which were determined using the Pierce Micro-BCA protein assay kit (Thermo Scientific-Piece Biotechnology, Rockford, Ill.) according to the manufacturer's protocol. Glucose levels in each treatment group were divided by the mean level in control group (without the treatments of Compounds CDE, insulin, 8-CPT and Dex) to obtain the relative glucose level. Data are presented as Mean±SEM of 3-4 samples.
Similar to the studies on AML-12 cells, primary mouse hepatocytes were pretreated with a control (water) or 150 ppb and 300 ppb doses of selenium Compounds CDE in serum-containing DMEM/F12 media for 24 hours. This treatment was followed by retreatments with these selenium compounds in the presence or absence of insulin (10 and 100 nM) or insulin alone for 6 hours. […]

“insulin: insulin (10 or 100 nM, Sigma) used as comparator and cotreatment”: in test [1], the “pFoxo1T24 protein level (in words)” value is listed as “significant increase”. Besides, the pFoxo4T28 levels result in test [2] is “barely detectable”. In addition, the 8-CPT/Dex-stimulated glucose production entry in test [3] (10 nM insulin) is on record as “significantly inhibited glucose production”; in test [3] (100 nM insulin), “only a trend of decreased glucose production”. In addition, the 8-CPT/Dex-induced glucose production result in test [3] (insulin 10 and 100 nM, vs 8-CPT/Dex group) is “significantly decreased 8-CPT/Dex-induced glucose production”. Further, the “decrease of glucose production” value in test [3] (insulin alone at 10 nM and 100 nM, vs water-treated control) is on record as 25-30%; in test [3] (insulin alone, both doses (10, 100 nM), serum-starved, serum-free media) it was 40-47%.
